The text below walks through data of patent publication US12016858B2, “Methods for the treatment of abnormal involuntary movement disorders” (AUSPEX PHARMACEUTICALS, INC., priority 2015, dated 2024).

The subject of data set [1] is cardiac repolarization (QTcF interval). Description: TQT study, six-period crossover, placebo- and positive-controlled. The data set is classed as in vivo, healthy volunteers. As for the experimental part: Study Design. Given the known risk for tetrabenazine to increase the QT interval, a TQT study of deutetrabenazine, which included tetrabenazine as a treatment arm, was conducted in 48 healthy volunteers. This was a single-center, randomized, double-blind, placebo- and positive-controlled six-period crossover study to evaluate the effects of low-dose (12 mg) and high-dose (24 mg) deutetrabenazine on cardiac repolarization, based on placebo-corrected, time-matched changes from baseline in the QTcF interval. Assay sensitivity was established by using moxifloxacin 400 mg as the positive control.
The key outcome measure was to determine the effect of single doses of deutetrabenazine on the QTc interval.
In the table above, ΔΔQTcF is defined as the difference between the least squares mean change from baseline for the active drug and placebo. deutetrabenazine was compared with deutetrabenazine placebo (administered under fed conditions) and tetrabenazine was compared with tetrabenazine placebo (administered under fasted conditions). […] The upper limit of the 95% one-sided confidence interval is the upper limit of the 90% 2-sided confidence interval.

The subject of a further data set is patients with HD. The conditions noted are these: cited from earlier work.
The subject of data set [2] is patients with hyperkinetic movement disorders. Conditions: retrospective study of 98 patients; cited from earlier work.
The subject of a further data set is QTc interval. Conditions: 50 mg; 90% two-sided CI: 5.0, 10.4 ms; cited from earlier work.
[3] abbreviates: 12-week placebo-controlled study.

With `COc1cc2c(cc1OC)C1CC(=O)C(CC(C)C)CN1CC2` (stereo not shown) [tetrabenazine, 1,3,4,6,7,11b-Hexahydro-9,10-dimethoxy-3-(2-methylpropyl)-2H-benzo[a]quinoline], the “Maximum Placebo-Adjusted Change from Baseline in QTcF” value in data set [1] (50 mg single dose, fasted) amounted to 7.6 ms. For the same compound, the “time point at which the maximal ΔΔQTcF was observed” value in data set [1] (in vivo) was 3 h. Also, in the data set with patients with HD (setting [3]), the “TMC score of the UHDRS” value is reported as “demonstrated to improve the TMC score” and the TMS result is listed as “failed to show statistically significant improvement in TMS”. In addition, the “adverse events suggestive of parkinsonism” value in the data set on patients with HD (12-week randomized controlled trial) was 15%. Moreover, the “patients in whom dose escalation was discontinued or dosage reduced due to adverse events” value with patients with HD (28 of 54 patients randomized) was 52%. In addition, in the data set on patients with HD (N = 54), the “Adverse reaction Akathisia” value is 10 (19) n (%), the “Adverse reaction Anxiety/anxiety aggravated” value is on record as 8 (15) n (%), the “Adverse reaction Appetite decreased” value is given as 2 (4) n (%) and the “Adverse reaction Balance difficulty” value is on record as 5 (9) n (%). Besides, in the data set with patients with HD (N = 54), the “Adverse reaction Bronchitis” value is recorded as 2 (4) n (%), the “Adverse reaction Depression” value is on record as 10 (19) n (%), the “Adverse reaction Dizziness” value was 2 (4) n (%) and the “Adverse reaction Dysarthria” value is 2 (4) n (%). Besides, in the data set on patients with HD (N = 54), the “Adverse reaction Dysuria” value is 2 (4) n (%), the “Adverse reaction Ecchymosis” value is recorded as 3 (6) n (%), the “Adverse reaction Fall” value is listed as 8 (15) n (%) and the “Adverse reaction Fatigue” value was 12 (22) n (%). In the data set with patients with HD (N = 54), the “Adverse reaction Gait unsteady” value is on record as 2 (4) n (%), the “Adverse reaction Headache” value is on record as 2 (4) n (%), the “Adverse reaction Insomnia” value was 12 (22) n (%) and the “Adverse reaction Irritability” value was 5 (9) n (%). Moreover, in the data set with patients with HD (N = 54), the “Adverse reaction Laceration (head)” value is 3 (6) n (%), the “Adverse reaction Nausea” value is recorded as 7 (13) n (%), the “Adverse reaction Obsessive reaction” value was 2 (4) n (%) and the “Adverse reaction Parkinsonism/bradykinesia” value is listed as 5 (9) n (%). For the same compound, in the data set on patients with HD (N = 54), the “Adverse reaction Sedation/somnolence” value is reported as 17 (31) n (%), the “Adverse reaction Shortness of breath” value is reported as 2 (4) n (%), the “Adverse reaction Upper respiratory tract infection” value is given as 6 (11) n (%) and the “Adverse reaction Vomiting” value was 3 (6) n (%). Besides, the “boxed warning: depression and suicidality in patients with HD” value with patients with HD (prescribing information) was “increases the risk of depression and suicidal thoughts and behavior (suicidality)”. For the same compound, in data set [2], the “dysphagia observed in patients” value is listed as 19%. In addition, the “mean increase in QTc interval” value in the data set on QTc interval is recorded as “approximately 8 ms”.

As to `COc1c(N2C[C@@H]3CCCN[C@@H]3C2)c(F)cc2c(=O)c(C(=O)O)cn(C3CC3)c12` [Moxifloxacin, reference compound], the “Maximum Placebo-Adjusted Change from Baseline in QTcF” value in data set [1] (400 mg, positive control) was 14.0 ms.
